These results are taken from patent publication US20260315436A1, “METHOD OF TREATING DISORDERS WITH SURF1 MALFUNCTION” (Cure Mito Foundation, priority 2023, published 2026).

The subject of data set [1] is GM28010 SURF1 mutant fibroblasts. Description: Seahorse mitochondrial stress test, fibroblast cell line GM28010 (Experiment 2, combinations and single compounds). It is filed as cell-based, human. To be noted: 48 h. As to the method: (§1) In order to evaluate selected compounds' impact on mitochondrial function in patient-derived fibroblasts compared to controls, three seahorse assays were conducted, Exp. 1: Fibroblast cell line GM28010—single compounds; Exp. 2. Fibroblast cell line GM28010—combination of compounds+ Single compounds; and Exp. 3: Fibroblast cell line GM28012—single compounds. Seahorse XF24 Extracellular Flux Analyzers continuously measure oxygen concentration and proton flux in the cell supernatant over time (Wu et al., 2007). The oxygen concentration and proton flux measurements are converted in OCR and ECAR values. This enables a direct quantification of mitochondrial respiration and glycolysis. The aim of the seahorse assays is to evaluate the impact of selected compounds on mitochondrial function in patient-derived fibroblasts compared to controls. Compounds used in the seahorse assays include posacanazole, sertaconazole, glabridin, zinglibroside (ginsenoside Z R1), AM281, cysteamine bitrartate, PF-06447475, losmapimod, telepravir, miltefosine, incyclinide, poziotinib, and methylene blue.
(§2) • Basal Oxygen Consumption (OCR): This reflects the cellular oxygen usage under basal conditions, encompassing both energy production (ATP turnover) and background oxygen leak from the mitochondria. • Oligomycin Injection: Oligomycin is a compound that inhibits ATP synthase, an enzyme crucial for ATP production within mitochondria. • Oligomycin-resistant Respiration: After oligomycin injection, minimal oxygen consumption persists, representing non-ATP linked oxygen leak from the mitochondria, often termed proton leak. • ATP-linked Respiration: This value is derived by subtracting the oligomycin-resistant respiration from the basal OCR. It signifies the oxygen consumption specifically linked to ATP production through mitochondrial oxidative phosphorylation. • Mitochondrial Bioenergetic Efficiency: This parameter reflects the percentage decrease in oxygen consumption observed after oligomycin injection, indicating the mitochondria's efficiency in utilizing oxygen for ATP generation. • FCCP Injection: FCCP is a chemical that disrupts the link between mitochondrial electron transport and ATP production. • Maximal Respiration: Following FCCP injection, the highest oxygen consumption rate is measured, representing the maximum capacity of the mitochondria to utilize oxygen for respiration. • Spare Respiratory Capacity: This parameter is calculated by subtracting basal respiration from maximal respiration.
GM28010 is a primary human fibroblast cell line that was obtained from patients with SURF1 Leigh syndrome. It was purchased from the Coriell Cell Repositories (Camden, N.J., repository number GM28010).
GM00038 is a primary human fibroblast cell line purchased from the Coriell Cell Repositories (Camden, N.J.; repository number GM00038). GM00038 was used as a healthy control.
Fibroblasts were grown in glucose according to recommendation. Cells were plated in XF96 plates in culture medium and plated at 10,000 cells/well. The day after plating, cells were treated with compounds. Treatments completed in glucose medium Compounds were tested at for 48 hours. The compounds were incubated at (37 C, 5% CO2) until the day of the experiment.
The fibroblasts were run at passage numbers: GM28010 SURF1 Fibroblasts P5.
The Assay Medium was 10 mM glucose or galactose DMEM supplemented with 2 mM glutamine and 1 mM pyruvate. Injection Ports for basal glucose: Port A: 2 μM oligomycin; Port B: 2.5 μM FCCP; Port C: 4 μM FCCP; and Port D: 2 μM rotenone and antimycin A. The Data were normalized to cell number per well after the run. The Hoechst-stained nuclei were counted with a Operetta High-Content Imager.

Data set [2] has as its system GM28012 SURF1 fibroblasts. As to the kind of experiment: Seahorse mitochondrial stress test, fibroblast cell line GM28012 (Experiment 3, single compounds). Type of data set: cell-based, human. To be noted: 48 h; for ATP-linked respiration / basal respiration: both glucose and galactose. The method, then:
as §1, §2
GM28010 primary human fibroblasts obtained from patients with SURF1 Leigh syndrome were purchased from the Coriell Cell Repositories (Camden, N.J.; repository number GM28010).
GM00038 primary human fibroblasts purchased from the Coriell Cell Repositories (Camden, N.J., repository number GM00038) and were used as a healthy control.
Fibroblasts were grown in glucose according to recommendation. Cells were plated in XF96 plates in culture medium and plated at 10,000 cells/well. The day after plating, the cells were treated with the compounds. The treatments completed in glucose medium and galactose medium. The compounds were tested at for 48 hours. The compounds were incubated at (37 C, 5% CO2) until the day of the experiment. The fibroblasts were run at passage numbers: GM28012 SURF1 Fibroblasts P5.
The assay medium was 10 mM glucose or galactose DMEM supplemented with 2 mM glutamine and 1 mM pyruvate. Injection Ports for basal glucose: Port A: 2 μM oligomycin; Port B: 2.5 μM FCCP; Port C: 4 μM FCCP; and Port D: 2 μM rotenone and antimycin A.
The data were normalized to cell number per well after the run. The Hoechst-stained nuclei were counted with a Operetta High-Content Imager.

Data set [3] has as its system shy1Δ knockout mutants. As to the kind of experiment: Yeast drug repurposing screen, shy1Δ knockout mutants (haploid/diploid not separated). It is filed as cell-based. Conditions: FIG. 12, inactive statins; test not named. An excerpt:
An aim of the present disclosure is to identify SURF1 Leigh Syndrome drug repurposing clinical candidates using a rapid turnaround, multi-species phenotypic screening approach that starts with the development and phenotypic characterization of genetically personalized yeast strains—“patient avatars”—and culminates in a drug repurposing screen, a process previously published for PMM2-CDG in Lao et al., 2019 Feb 7; 9(2):413423. […] Slow growth can be rescued in a pathway-agnostic high-throughput chemical suppressor screen. As in the case of PMM2-CDG, the SURF1 yeast ortholog, gene identifier SHY1, is essential undergrowth conditions that require functional mitochondria, i.e., respiration. The yeast species Yarrowia lipolytica was used for the screen since it is an obligate aerobe (requires oxygen to grow), contains a fully functional electron transport chain, and has already been prototyped in a drug repurposing screen (Perlstein 2020). A 384-well-plate growth-based assay with appropriate positive and negative controls was designed and optimized for a drug repurposing screen (~5,000 compounds). The drug repurposing screen for mitochondrial diseases involving complex IV deficiency is described herein. A general yeast screening method was discussed in Perlstein, Drug repurposing for mitochondrial diseases using a pharmacological model of complex I deficiency in the yeast Yarrowia lipolytica, bioRxiv, (2020), see https://www.biorxiv.org/content/10.1101/2020.01.08.899666v1.
Yeast cells completely lacking SURF1 are unable to grow in conditions that require their mitochondria to produce energy. Knocking out the SURF1 ortholog in yeast—SHY1—results in loss of the ability of the knockout mutant to grow on a non-fermentable carbon source, e.g., lactate or glycerol, that requires functional mitochondria. A shy1Δ knockout mutant is incapable of growing on YEPG, or yeast media spiked with ethanol and glycerol as the sole non-fermentable carbon sources.
A unique hit signature was identified using the pilot screen of ~2,500 known drugs. A drug repurposing screen was performed. BY4741 and BY4742 are wildtype haploid controls, BY4743 is the wildtype diploid control. PY14 and PY15 are haploid shy1Δ knockout mutants of each yeast mating type. PY16 is the diploid SHY1/shy1Δ heterozygous mutant, which grows just like BY4743. PY17 is the diploid homozygous shy1Δ knockout mutant. FIG. 20.
FIG. 22, FIG. 23, FIG. 24A, FIG. 24B. It is thought that the hits act by stabilizing cytochrome c oxidase.
The discernible red triangles are the hits; the larger the triangles, the more statistically significant the result. […] FIG. 25A and FIG. 25B. Haploid and diploid SURF1 deficient mutants were screened. The positive control is a wildtype (unmutated) yeast strain. […]

Setting [4] is: listed as Cysteamine Bitrartate.

Turning to `NCCS` [cysteamine bitartrate], the “respiration (oxygen consumption rate)” value in data set [1] (combinations at 1 μM losmapimod, 10 μM Ginsenoside Z R1, 10 μM PF-06447475, single compounds 1, 5, 10 μM) is “did not alter oxygen consumption rates”. The “ATP production rate through glycolysis” value in data set [1] (higher concentrations) is given as “decreased”. Besides, in data set [2], the “ATP production through OXPHOS” value was “Dose-dependent increase”; the “ATP production through glycolysis” value was “decrease ATP production through glycolysis”; the “total ATP production rate” value is recorded as “Dose-dependent increase”; the ATP-linked respiration result is “increased basal respiration and ATP-Linked respiration in a dose-dependent manner”. Also, the basal respiration result in data set [2] is “increased basal respiration and ATP-Linked respiration in a dose-dependent manner”. For the same compound, in data set [2] (setting [4]), the ATP-linked respiration result was “↑basal respiration and ATP-”; the basal respiration result was “↑basal respiration and ATP-”; the “ATP production through glycolysis” value was “conditions. ↓ATP production”. Also, in data set [2] (glucose-cultured cells), the glycolysis result is listed as “dose-dependent decrease”, the maximal respiration result is on record as “dose-dependent decrease” and the toxicity entry was “some toxicity”.

With `CC[C@H](C)C(=O)O[C@H]1C[C@@H](C)C=C2C=C[C@H](C)[C@H](CC[C@@H]3C[C@@H](O)CC(=O)O3)[C@H]21` [lovastatin], in data set [3], the activity of statins result is “inactive”.

With `CC[C@H](C)C(=O)O[C@H]1CCC=C2C=C[C@H](C)[C@H](CC[C@@H]3C[C@@H](O)CC(=O)O3)[C@H]21` [mevastatin], in data set [3], the activity of statins entry was “inactive”.

On to `CC[C@H](C)C(=O)O[C@H]1C[C@H](O)C=C2C=C[C@H](C)[C@H](CC[C@@H](O)C[C@@H](O)CC(=O)O)[C@H]21` [pravastatin], for which the activity of statins result in data set [3] is “inactive”.

As to `CCC(C)(C)C(=O)O[C@H]1C[C@@H](C)C=C2C=C[C@H](C)[C@H](CC[C@@H]3C[C@@H](O)CC(=O)O3)[C@H]21` [simvastatin], the activity of statins entry in data set [3] is “inactive”.
